# Reference: patent publication US10519138B2, “Modulators of SOCE, compositions, and uses thereof” (Università degli Studi del Piemonte Orientale “Amedeo …, priority 2016, dated 2019)
# “Also recorded” adds a separate entry of the source.
# How the values were obtained:
# STIM1 mutated proteins = assay: SOCE in HEK cells overexpressing wild-type or mutated STIM1 (Fura2-AM single cell analysis); type: cell-based, human; conditions: 10 μM
# Experimental: (§1) SOCE induced by tBHQ in wilde-type HEK cells or HEK cells overexpressing the indicated STIM1 (A) or Orai1 (B) proteins. Average traces of approx. 600 cells from 20 coverslips performed on 4 separate days for each condition.
# (§2) 3-(1-(4-(4-(ethoxycarbonyl)-5-(trifluoromethyl)-1H-pyrazol-1-yl)phenyl)-1H-1,2,3-triazol-4-yl)benzoic acid 10 μM impairs SOCE both in Wild-type and STIM1 (A) or Orai1 (B) mutated cells.
# (§3) HEK STIM1 c.326A>G p.H109R (A) and HEK Orai1 c.734C>T p.P245L (B) cells were assayed for a calcium response to different concentrations of 3-(1-(4-(4-(ethoxycarbonyl)-5-(trifluoromethyl)-1H-pyrazol-1-yl)phenyl)-1H-1,2,3-triazol-4-yl)benzoic acid (1-3-10-30-100 μM) using Fura2-AM single cell analysis. Concentration-response curves represent the AUC % of 3-(1-(4-(4-(ethoxycarbonyl)-5-(trifluoromethyl)-1H-pyrazol-1-yl)phenyl)-1H-1,2,3-triazol-4-yl)benzoic acid.
# (§4) Human embryonic kidney HEK cells were obtained from ATCC (ATCC® CRL-1573™, Rockville, Md., USA) and were cultured in Dulbecco's Modified Eagle's Medium (DMEM; Sigma-Aldrich, Italy), supplemented with 10% heat-inactivated FBS (Gibco, Italy), 1-glutamine 50 mg/mL (Sigma-Aldrich, Italy), penicillin 10 U/mL and streptomycin […] (Sigma-Aldrich, Italy) at 37° C., under a 5% CO2 humidified atmosphere. […]
# [1] = system: Store Operated Calcium Entry (SOCE) in BV-2 cells; assay: Fluo-4 fluorimetric assay of tBHQ-induced store operated calcium entry in BV-2 cells; type: cell-based, mouse
# Experimental: (A) BV-2 cells were plated in poly-d-lysine coated 24-well plate and incubated overnight. After 24 hours, cells were loaded with 2 μM Fluo-4 and placed in an extracellular solution containing 0 mM Ca^2+. Stores were depleted with 50 μM tBHQ and calcium influx was stimulated by the addition of 2 mM Ca^2+ alone (Ctrl), or in conbination with: compound with no activity (NM-3A), and compounds that positively (4-(1-(4-(3,5-bis(trifluoromethyl)-1H-pyrazol-1-yl)phenyl)-1H-1,2,3-triazol-4-yl)benzoic acid) and negatively (3-(1-(4-(4-(ethoxycarbonyl)-5-(trifluoromethyl)-1H-pyrazol-1-yl)phenyl)-1H-1,2,3-triazol-4-yl)benzoic acid) regulate SOCE. Calcium responses are expressed as changes in fluorescence intensity before and after the addition of selected modulators. (B) BV-2 cells were assayed for a calcium response to different concentrations of 3-(1-(4-(4-(ethoxycarbonyl)-5-(trifluoromethyl)-1H-pyrazol-1-yl)phenyl)-1H-1,2,3-triazol-4-yl)benzoic acid and 4-(1-(4-(3,5-bis(trifluoromethyl)-1H-pyrazol-1-yl)phenyl)-1H-1,2,3-triazol-4-yl)benzoic acid (0.1-0.3-1-3-10-30-100 μM) using Fluo-4 fluorimetric assay. Concentration-response curves represent the AUC % of both compounds as compared to positive control.
# Immortalized primary mouse microglial BV-2 cells were obtained from ATCC (ATCC® CRL-2540™, Rockville, Md., USA) and were cultured in Dulbecco's Modified Eagle's Medium (DMEM; Sigma-Aldrich, Italy), supplemented with 10% heat-inactivated FBS (Gibco, Italy), 1-glutamine 50 mg/mL (Sigma-Aldrich, Italy), penicillin 10 U/mL and streptomycin […] (Sigma-Aldrich, Italy) at 37° C., under a 5% CO2 humidified atmosphere. For experiments, the cells were plated 2×10^4 per ml in 24 well plates) or onto glass coverslips at concentrations of 4×10^4 per mL (24 mm diame-ter coverslips in 6 well plates).
# BV-2 cells were loaded with 5 μM Fluo-4 AM in presence of 0.02% of Pluronic-127 (both from Life Technologies, Italy) and 10 μM sulfinpyrazone in Krebs-Ringer buffer (KRB, 135 mM NaCl, 5 mM KCl, 0.4 mM KH2PO4, 1 mM MgSO4, 5.5 mM glucose, 20 mM HEPES, pH 7.4) containing 2 mM CaCl2 (30 min, room temperature). Subsequently, cells were washed and incubated with KRB for other 30 min to allow de-esterification of Fluo-4 AM. Experiments were carried out prior to and during exposure of the cells to the Ca^2+-free solution. In the absence of Ca^2+, the intracellular Ca^2+ stores were depleted by 2,5-t-butylhydroquinone (tBHQ, 50 μM; Sigma-Aldrich, Italy), a SERCA poison, and then calcium 2 mM was re-added to the extracellular solution. Fluorescence is then monitored sequentially for a second in each well for 600 seconds with excitation at 494 nm and an emission wavelength at 516 nm on the V3 Victor plate-reader (Perkin Elmer), generating time-curves for each well. Data were analysed using Microsoft Excel and GraphPad Prism.
# The percentage of SOCE inhibition for each compound was determined based on value of tBHQ-induced calcium influx into BV-2 cells (Table 2).
# Orai1 mutated proteins = assay: SOCE in HEK cells overexpressing wild-type or mutated Orai1 (Fura2-AM single cell analysis); type: cell-based, human; conditions: 10 μM
# Experimental: as §1, §2, §3, §4
# [2] = system: Store Operated Calcium Entry (SOCE) in Jurkat cells; assay: Fura-2 single-cell Ca2+ measurement of tBHQ-induced SOCE in Jurkat cells; type: cell-based, human; conditions: Homo sapiens, SOCE modulation based on tBHQ-induced calcium influx
# Experimental: Immortalized line of human T lymphocyte Jurkat cells were achieved from ATCC (ATCC® TIB-152™, Rockville, Md., USA) and were cultured in Roswell Park Memorial Institute Medium (RPMI 1640; Sigma-Aldrich, Italy), supplemented with 10% heat-inactivated FBS (Gibco, Italy), 1-glutamine 50 mg/mL (Sigma-Aldrich, Italy), penicillin 10 U/mL and streptomycin […] (Sigma-Aldrich, Italy) at 37° C., under a 5% CO2 humidified atmosphere. For experiments, the cells were plated onto glass coverslips at concentrations of 6×10^4 per mL (24 mm diameter coverslips in 6 well plates).
# Compounds were also tested on Jurkat cells in single-cell analysis using Fura-2 AM on cover-slips. Jurkat cells were loaded with 5 μM Fura-2 AM in presence of 0.02% of Pluronic-127 (both from Life Technologies, Italy) and 1 μM sulfinpyrazone in Krebs-Ringer buffer (KRB, 135 mM NaCl, 5 mM KCl, 0.4 mM KH2PO4, 1 mM MgSO4, 5.5 mM glucose, 20 mM HEPES, pH 7.4) containing 2 mM CaCl2 (30 min, room temperature). Afterwards, cells were washed and incubated with KRB for other 30 min to allow de-esterification of Fura-2AM. To measure store operated calcium entry, changes in cytosolic Ca^2+ were monitored upon depletion of the intracellular Ca^2+ stores. Experiments were carried out prior to and during exposure of the cells to the Ca^2+-free solution. In the absence of Ca^2+, the intracellular Ca^2+ stores were depleted by inhibition of the vesicular Ca^2+ pump by 2,5-t-butylhydroquinone (tBHQ, 50 μM; Sigma-Aldrich, Italy). Re-addition of 2 mM Ca^2+ allowed assessing the SOCE. During the experiments the cover-slips were mounted into acquisition chamber and placed on the stage of a Leica DMI6000 epi-fluorescent microscope equipped with S Fluor ×40/1.3 objective. Fura-2 was excited by alternate 340 and 380 nm using a Polychrome IV mono-chromator (Till Photon-ics, Germany) and the probe emission light was filtered through 520/20 band-pass filter and collected by a cooled CCD camera (Hamamatsu, Japan). The fluorescence signals were acquired and processed using MetaFluor software (Molecular Device, Sun-Nyvale, C A, USA). To quantify the differences in the amplitudes of Ca^2+ transients the ratio values were normalized using the formula ΔF/F0 (referred to as normalized Fura-2 ratio, “Norm. Fura ratio”). The percentage of SOCE modulation for each of 15 compounds was determined based on value of tBHQ-induced calcium influx into Jurkat cells. Data were analysed using Microsoft Excel and GraphPad Prism.
structure (smiles),measurement,setting,value
"CCOC(=O)c1cnn(-c2ccc(-n3cc(-c4cccc(C(=O)O)c4)nn3)cc2)c1C(F)(F)F [3-(1-(4-(4-(ethoxycarbonyl)-5-(trifluoromethyl)-1H-pyrazol-1-yl)phenyl)-1H-1,2,3-triazol-4-yl)benzoic acid]",Effect on SOCE in wild-type and STIM1 mutated cells (FIG. 4A),STIM1 mutated proteins,impairs SOCE; also recorded: able to revert the over-activation
same,"Regulation of SOCE (calcium response, representative traces FIG. 2A)","[1]; Fluo-4, 50 μM tBHQ, 2 mM Ca2+ re-addition",negatively
same,inhibition at 10 µM,"[1]; Mus musculus, 10 μM, SOCE inhibition based on tBHQ-induced calcium influx",45.3%
same,Effect on SOCE in wild-type and Orai1 mutated cells (FIG. 4B),Orai1 mutated proteins,impairs SOCE; also recorded: able to revert the over-activation
same,inhibition at 10 µM,[2],70.4%
